Assay [1] has as its system LPS-induced TNFα in monocyte-derived macrophages (MdM). Briefly: MdM assay: LPS-triggered TNFα (ELISA). Type of assay: cell-based, human. The following applies: Homo sapiens, Macrophage, 20 h, monocyte-derived macrophages, LPS 200 ng/mL, supernatant after 20 h; read-out: TNFα EC50. An outline of the steps: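 Compound added 1 h before LPS (200 ng/mL final) to day-10 macrophages derived from magnetically isolated CD14+ human blood monocytes, DMSO held at 0.2%. TNFα secreted over 20 h of stimulation quantified by ELISA against a standard curve.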
Background: An ELISA detects its analyte on a solid surface through an enzyme-linked reagent.

For assay [2], the system named is LPS triggered IL-10 secretion in monocytes. Briefly: Monocytes assay: LPS-triggered IL-10 (ELISA). Type of assay: cell-based, human. To be noted: LPS 200 ng/mL, supernatant after 4 h, maximal fold change vs LPS only. The gist of the method: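 Human CD14+ monocytes, magnetically isolated from buffy-coat PBMCs, were seeded at 100 000 cells/well and preincubated with compound for 1 h at 37° C (0.2% DMSO). LPS was then added at a final 200 ng/mL for 4 h. Supernatant IL-10 was quantified by chemiluminescent sandwich ELISA against a standard curve.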

Molecules are shown by their SMILES.

As to `COc1cc(-c2cnc3cc(OCC4(F)CN(C)C4)ccn23)cc2c1C(=O)N(CC(F)(F)F)CC2` [compound 252, 6-[7-[(3-fluoro-1-methyl-azetidin-3-yl)methoxy]imidazo[1,2-a]pyridin-3-yl]-8-methoxy-2-(2,2,2-trifluoroethyl)-3,4-dihydro isoquinolin-1-one], the EC50 in assay [1] lay in the range of 0.1 to 1 µM. The “IL-10 FCmax median” value in assay [2] is “+++ (>4.5)”.

`COc1cc(-c2cnc3cc(OCCN4CCOC[C@H]4C)ccn23)cc2c1C(=O)N(CC(F)(F)F)CC2` [compound 259, 8-methoxy-6-[7-[2-[(3R)-3-methylmorpholin-4-yl]ethoxy]imidazo[1,2-a]pyridin-3-yl]-2-(2,2,2-trifluoroethyl)-3,4-dihydroisoquinolin-1-one]: the EC50 in assay [1] lay within 0.1 to 1 µM. Moreover, the “IL-10 FCmax median” value in assay [2] is “+++ (>4.5)”.

Consider `COc1cc(-c2cnc3cc(OCCCN4CC5(COC5)C4)ccn23)cc(OC(F)F)c1C(=O)NC1CC1` [compound 273, N-cyclopropyl-2-(difluoromethoxy)-6-methoxy-4-[7-[3-(2-oxa-6-azaspiro[3.3]heptan-6-yl)propoxy]imidazo[1,2-a]pyridin-3-yl]benzamide], for which, in assay [1], the EC50 lay in the range of 0.1 to 1 µM. Also, the “IL-10 FCmax median” value in assay [2] is recorded as “++ (>1.5-4.5)”.

With `COc1cc(-c2cnc3cc(OCCCN4CCC4)ccn23)cc(OC(F)F)c1C(=O)NC1CC1` [compound 274, 4-[7-[3-(azetidin-1-yl)propoxy]imidazo[1,2-a]pyridin-3-yl]-N-cyclopropyl-2-(difluoromethoxy)-6-methoxy-benzamide], the EC50 in assay [1] is 0.1 to 1 µM. Further, the “IL-10 FCmax median” value in assay [2] is given as “++ (>1.5-4.5)”.

Regarding `COc1cc(-c2cnc3cc(OCCCN4CCCC4)ccn23)cc(OC(F)F)c1C(=O)NC1CC1` [compound 275, N-cyclopropyl-2-(difluoromethoxy)-6-methoxy-4-[7-(3-pyrrolidin-1-ylpropoxy)imidazo[1,2-a]pyridin-3-yl]benzamide], in assay [1], the EC50 lay in the range of 0.1 to 1 µM. Moreover, in assay [2], the “IL-10 FCmax median” value was “+++ (>4.5)”.

For the compound `COc1cc(-c2cnc3cc(OCCN4CCN(C(C)C)CC4)ccn23)cc(OC(F)F)c1C(=O)NC1CC1` [compound 276, N-cyclopropyl-2-(difluoromethoxy)-4-[7-[2-(4-isopropylpiperazin-1-yl)ethoxy]imidazo[1,2-a]pyridin-3-yl]-6-methoxy-benzamide], the EC50 in assay [1] was 0.1 to 1 µM. Moreover, the “IL-10 FCmax median” value in assay [2] is “++ (>1.5-4.5)”.

`COc1cc(-c2cnc3cc(OCCCN4CCNCC4)ccn23)cc(OC(F)F)c1C(=O)NC1CC1` [compound 278, N-cyclopropyl-2-(difluoromethoxy)-6-methoxy-4-[7-(3-piperazin-1-ylpropoxy)imidazo[1,2-a]pyridin-3-yl]benzamide]: the EC50 in assay [1] lay in the range of 1 to 5 µM. The “IL-10 FCmax median” value in assay [2] is on record as “++ (>1.5-4.5)”.

Consider `COc1cc(-c2cnc3cc(OCCOCCN4CCCCC4)ccn23)cc(OC(F)F)c1C(=O)NC1CC1` [compound 305], for which the EC50 in assay [1] is 0.1 to 1 µM. Also, the “IL-10 FCmax median” value in assay [2] is given as “+++ (>4.5)”.

As to `COc1cc(-c2cnc3cc(OCCCN4CCC5(CC4)CN(C)C(=O)O5)ccn23)cc(OC(F)F)c1C(=O)NC1CC1` [compound 325, N-cyclopropyl-2-(difluoromethoxy)-6-methoxy-4-[7-[3-(3-methyl-2-oxo-1-oxa-3,8-diazaspiro[4.5]decan-8-yl)propoxy]imidazo[1,2-a]pyridin-3-yl]benzamide], in assay [1], the EC50 fell in the range of 0.0001 to 0.1 µM. Moreover, the “IL-10 FCmax median” value in assay [2] is given as “++ (>1.5-4.5)”.

On to `COc1cc(-c2cnc3cc(OCCCN4CCCC(O)C4)ccn23)cc(OC(F)F)c1C(=O)NC1CC1` (stereo not drawn) [compound 328, N-cyclopropyl-2-(difluoromethoxy)-4-[7-[3-(3-hydroxy-1-piperidyl)propoxy]imidazo [1,2-a]pyridin-3-yl]-6-methoxy-benzamide], for which, in assay [1], the EC50 is 0.0001 to 0.1 µM. Further, the “IL-10 FCmax median” value in assay [2] is recorded as “+++ (>4.5)”.

Turning to `CCOC(=O)C1(F)CCN(CC(O)COc2ccn3c(-c4cc(OC)c(C(=O)NC5CC5)c(OC(F)F)c4)cnc3c2)CC1` (stereo not drawn) [compound 384, ethyl 1-[3-[3-[4-(cyclopropylcarbamoyl)-3-(difluoromethoxy)-5-methoxy-phenyl]imidazo[1,2-a]pyridin-7-yl]oxy-2-hydroxy-propyl]-4-fluoro-piperidine-4-carboxylate], the EC50 in assay [1] was 0.0001 to 0.1 µM. Besides, the “IL-10 FCmax median” value in assay [2] is “++ (>1.5-4.5)”.

As for `CCOC(=O)C1(F)CCN(CCOc2ccn3c(-c4cc(OC)c(C(=O)NC5CC5)c(OC(F)F)c4)cnc3c2)CC1` [compound 390, ethyl 1-[2-[3-[4-(cyclopropylcarbamoyl)-3-(difluoromethoxy)-5-methoxy-phenyl]imidazo[1,2-a]pyridin-7-yl]oxyethyl]-4-fluoro-piperidine-4-carboxylate], in assay [1], the EC50 lay in the range of 0.0001 to 0.1 µM. In assay [2], the “IL-10 FCmax median” value was “+++ (>4.5)”.

Usually EC50 stands for the concentration giving half of the maximal effect.

For the origin of these results see patent US12264156B2, “Compounds and pharmaceutical compositions thereof for the treatment of diseases” (GALAPAGOS NV, priority 2018, dated 2025).
